Test results: patent US20070269406A1, “Transcatheter tumor immunoembolization” (priority 2005, published 2007)

Legend:
splenic lymphocytes = test: Ovalbumin-specific proliferative recall response of splenic lymphocytes after intrahepatic immunization; type: in vivo, BALB/c mice; settings: intrahepatic (portal vein) ovalbumin immunization; boosted day 7 with ovalbumin/CFA; splenic lymphocytes 14 days after boost; FIG. 1
Excerpt: Four groups of BALB/c mice (The Jackson Laboratory, Bar Harbor, ME) of 6-8 weeks of age consisted of Group 1 intraperitoneal administration of ovalbumin, Group 2 intrahepatic administration of ovalbumin, Group 3 intrahepatic administration of ovalbumin together with lipiodol, and Group 4 intrahepatic administration of ovalbumin together with lipiodol and Poly (I:C).
Mice in Group 1(5 mice per group) where administered one hundred micrograms of ovalbumin (grade V; Sigma Aldrich) dissolved in 0.1 mL of 0.9% saline solution intraperitoneally. The following procedures were performed for mice receiving intrahepatic immunization: Mice were anesthetized with an intraperitoneal injection of ketamin at a concentration of 0.075 mg/g and medetomidine 0.005 mg/g (Sigma Aldrich, St Louis, Mo.). A midline abdominal incision was made, and the viscera were exposed. One hundred micrograms of ovalbumin was dissolved in 0.1 mL of 0.9% saline solution was injected into the portal vein with a 30-gauge needle for mice in Group 2. Mice in Group 3 received one hundred micrograms of ovalbumin dissolved in 0.1 mL of lipiodol (Guerbet, Roissy CdG Cedex, France). […] Cells were harvested onto glass fiber filters, and the radioactivity incorporated was quantitated using a Wallac Betaplate liquid scintillation counter. Results were expressed as the mean cpm of triplicate cultures±SEM. […]

[1] = test system: BALB/c T cells responding to C57/BL6 DC; test: Mixed lymphocyte reaction, proliferation of responding allogeneic T cells; type: cell-based, mice; settings: 3 day MLR; lipiodol-transfected C57/BL6 DC with naive BALB/c splenocytes; FIG. 9
Experimental: C57/BL6 DC after transfection were irradiated (3,000 rad) and seeded in triplicate at various concentrations in a flat-bottom 96-well plate (Coming) for use as stimulator cells. Splenic T cells from BALB/c mice were isolated by gradient centrifugation over Ficoll-Paque (Amersham Pharmacia Biotech, Quebec) and T cell nylon wool column purification, and added as responders (5×10^5 cells/well). The mixed lymphocytes were cultured at 37° C. for 72 h in 200 μl of RPMI 1640 supplemented with 10% FCS, 100 U/ml of penicillin, and 100 μg/ml of streptomycin and pulsed with 1 μCi/well of ^3H-labelled thymidine (Amersham Pharmacia Biotech) for the last 16 h of culture. Cells were harvested onto glass fiber filters, and the radioactivity incorporated was quatitated using a Wallac Betaplate liquid scintillation counter (Beckman, Fullerton, Calif.). Results were expressed as the mean counts per min of triplicate cultures±SEM. In some experiments anti-IL-10 (JES5 2A5, Pharmingen) or isotype control antibody were added for the duration of the MLR at a concentration of 5 ug/ml.
Since the specific function of DC in vivo is stimulation of T cell responses, we sought to determine whether the siRNA/lipiodol mixture had effects on inhibition of mixed lymphocyte reaction (MLR).

IL-12 p70 = IL-12 p70 production by LPS/TNF-activated bone marrow derived DC after siRNA transfection (ELISA); type: cell-based, C57/BL6 mice; settings: day-7 bone marrow derived C57/BL6 DC; LPS/TNF activation day 8; supernatants day 10; FIG. 7
Experimental: At Day 0, bone marrow cells were flushed from the femurs and tibias of C57/BL6 mice, washed and cultured in 6-well plates (Corning, N.Y.) at 4×10^6 cells/well in 4 ml of complete medium (RPMI 1640 supplemented with 2 mM L-glutamine, 100 U/ml penicillin, 100 μg of streptomycin, 50 μM 2-ME, and 10% FCS (all from Life Technologies, Ontario, Canada) supplemented with recombinant GM-CSF (10 ng/ml; PeproTech, Rocky Hill, N.J.) and recombinant mouse IL-4 (10 ng/ml; PeproTech). All cultures were incubated at 37° C. in 5% humidified CO2. Non-adherent cells were removed after 48 h of culture (Day 2) and fresh medium was added. After 7 days of culture, >90% of the cells expressed the characteristic DC-specific marker CD11c as determined by FACS. DC were washed and plated in 24-well plates at a concentration of 2×10^5 cells/well in 400 μl of serum-free RPMI 1640. Transfection with GenePorter, lipiodol, or naked siRNA was performed as described below on day 7 of culture. […]
(§1) The supernatants from recall response T cell cultures or MLR were harvested and assessed for DC cytokines (IL-12p70, IL-10) and T cell cytokines (IFN-, IL-4) by ELISA. Cytokine-specific ELISA (Endogen, Rockford, Ill.) was used for detecting cytokine concentrations in culture supernatants according to the manufacturer's instructions using a Benchmark Microplate Reader (Bio-Rad, Hercules, Calif.). […]

[2] = test system: CD4 T cells from draining lymph nodes; test: KLH proliferative recall response after immunization with siRNA/lipiodol, CFA and KLH; type: in vivo, C57BL/6 mice; settings: lipiodol/CFA composition with KLH, identical protocol to Example 10; FIG. 15
Experimental: (§2) C57/BL6 mice were immunized intradermally at the interior side of both hind legs with 100 μl of KLH or ovalbumin (1 μg/μl) emulsified in CFA (Difco Laboratories, Detroit, Mich.) in the presence or absence of 10 nMol siRNA and 10% lipiodol. After 14 days mice were sacrificed and T cells extracted as described above.
(§3) Proliferative recall responses to KLH and ovalbumin in immunized mice were assessed by sacrificing C57/BL6 mice 14 days after immunization with antigen-loaded DC. T cells were purified from suspensions of lymph nodes using CD4+ T cell column (R&D Systems) after washing in PBS. Purified T cells were cultured in 96 well plates with irradiated syngeneic splenocytes in triplicate and mixed with serial dilutions of KLH or OVA at concentrations ranging from 0-10 ug/ml. Following a 72-h incubation, 1 μCi of [^3H]thymidine (Amersham) was added to each well for 16 h. Using an automated cell harvester, the cells were collected onto glass microfiber filter, and the radioactive labeling incorporation was measured by a Wallac Betaplate liquid scintillation counter.
Accordingly, we used the KLH recall response as an indicator. C57BL/6 mice were immunized with the IL-12 siRNA/lipiodol mixture combined with CFA and KLH. […]

IFN-γ = test: KLH recall response supernatants, IFN-γ ELISA; type: in vivo, C57BL/6 mice; settings: 14 days after immunization with siRNA/lipiodol, CFA and KLH, supernatants by ELISA, FIG. 13, FIG. 16
Experimental: as §2
as §3, with “Following a 72-h incubation, 1 μCi of [^3H]thymidine (Amersham) was added to each well for 16 h.” left out
as §1

IL-4 = test: KLH recall response supernatants, IL-4 ELISA; type: in vivo, C57BL/6 mice; settings: 14 days after immunization with siRNA/lipiodol, CFA and KLH, supernatants by ELISA, FIG. 14, FIG. 17
Experimental: as §2
as §3, with “Following a 72-h incubation, 1 μCi of [^3H]thymidine (Amersham) was added to each well for 16 h.” left out
as §1

[3] = listed as Lipiodol-siRNA targeting IL-10

In the case of Poly (I:C), the “proliferative recall response to ovalbumin ([3H]thymidine)” value (splenic lymphocytes) is reported as “profound stimulation”.
For “mismatched siRNA: mismatched (mixed) control sequence (AACTGCCAGATGGATGGTGAC) (SEQ ID NO: 3) (listed as DNA, chemistry not given here) [reference compound]”, the “proliferation of responding T cells / allostimulatory ability of DC in MLR” value [1] was “not the mismatched (mixed) control inhibited proliferation” and the “inhibition of IL-12 production” value (IL-12 p70) was “no inhibitory effect”.
For “siRNA specific for IL-12p35: siRNA specific for IL-12p35 (AACCUGCUGAAGACCACAGAU) (SEQ ID NO: 1), Dharmacon (listed as RNA, chemistry not given here)”, the “proliferation of responding T cells / allostimulatory ability of DC in MLR” value [1] was “inhibited proliferation” and the “inhibition of IL-12 production” value (IL-12 p70) was over 30%.
With “siRNA targeting IL-10: siRNA specific for IL-10 (AATAAGCTCCAAGAGAAAGGC) (SEQ ID NO: 2), delivered in vivo in a lipiodol/CFA composition (lipiodol/CFA formulation, further chemistry not given here)” the “recall proliferative response to KLH” value [2] was “increased”, the “IFN-γ production in KLH recall response” value (IFN-γ) was “enhanced” and the “IFN-γ production in KLH recall response” value (IFN-γ; [3]) was “Increased”. For the same substance, the “IL-4 production in KLH recall response” value (IL-4) was “reduced” and the “IL-4 production in KLH recall response” value (IL-4; [3]) was “Decreased”.
